Measurements from patent USRE47193E1, “Selectively substituted quinoline compounds” (EISAI R&D MANAGEMENT CO., LTD., priority 2013, dated 2019).

Target: T1, mouse TLR7 (Mus musculus, UniProt P58681)
T1 sequence (P58681 27-1050): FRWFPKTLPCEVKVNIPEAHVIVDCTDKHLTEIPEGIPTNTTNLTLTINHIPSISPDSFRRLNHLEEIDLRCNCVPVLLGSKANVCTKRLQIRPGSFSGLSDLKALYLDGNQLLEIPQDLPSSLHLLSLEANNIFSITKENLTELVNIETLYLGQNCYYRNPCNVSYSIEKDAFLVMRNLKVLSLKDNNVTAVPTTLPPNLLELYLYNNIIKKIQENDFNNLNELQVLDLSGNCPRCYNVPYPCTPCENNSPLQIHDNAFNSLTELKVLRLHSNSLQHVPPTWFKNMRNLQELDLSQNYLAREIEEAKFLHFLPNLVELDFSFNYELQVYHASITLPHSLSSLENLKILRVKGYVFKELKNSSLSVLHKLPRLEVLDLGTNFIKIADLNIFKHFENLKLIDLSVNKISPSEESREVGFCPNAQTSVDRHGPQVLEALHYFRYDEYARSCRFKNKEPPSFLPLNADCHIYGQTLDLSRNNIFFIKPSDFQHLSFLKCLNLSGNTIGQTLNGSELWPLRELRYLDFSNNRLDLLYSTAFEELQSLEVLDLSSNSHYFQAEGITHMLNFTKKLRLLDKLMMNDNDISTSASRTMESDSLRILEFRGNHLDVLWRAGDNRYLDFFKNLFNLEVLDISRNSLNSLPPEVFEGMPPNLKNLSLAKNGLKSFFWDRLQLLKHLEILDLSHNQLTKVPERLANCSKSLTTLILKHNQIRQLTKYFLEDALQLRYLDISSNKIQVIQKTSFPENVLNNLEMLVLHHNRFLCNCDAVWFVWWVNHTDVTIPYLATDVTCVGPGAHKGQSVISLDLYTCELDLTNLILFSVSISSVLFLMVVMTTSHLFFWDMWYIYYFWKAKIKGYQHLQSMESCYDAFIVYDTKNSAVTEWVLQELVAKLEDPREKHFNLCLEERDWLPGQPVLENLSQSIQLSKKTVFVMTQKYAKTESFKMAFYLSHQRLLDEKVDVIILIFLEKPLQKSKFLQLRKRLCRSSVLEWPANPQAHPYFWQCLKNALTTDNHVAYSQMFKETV
Assay: Short-term in vivo (STIV) assay: oral dosing, R848 s.c., plasma IL-6
Design: female BALB/c mice (Jackson Labs, Bar Harbor, Me.) were dosed by oral gavage; tissue Jackson Labs; host or cells: living female BALB/c mice; plasma IL-6 after s.c. R848
Details: for short-term in vivo suppression of the TLR7 pathway (plasma IL-6): 33, 100 or 300 mg/kg oral, 6, 13 or 24 hours, FIG. 1
Outline: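 Female BALB/c mice (6–8 weeks) dosed orally with compound in 0.5% aqueous methyl-cellulose at 33, 100 or 300 mg/kg; at various times afterwards given 15 ug R848 s.c. to stimulate TLR7. Plasma IL-6 measured by ELISA to gauge potency and duration of action.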

Structure (SMILES)	% Suppression vs. Vehicle (3 h, 33 mg/kg)	% Suppression vs. Vehicle (3 h, 100 mg/kg)	% Suppression vs. Vehicle (6 h, 33 mg/kg)	% Suppression vs. Vehicle (6 h, 100 mg/kg)	% Suppression vs. Vehicle (6 h, 300 mg/kg)	% Suppression vs. Vehicle (19 h, 33 mg/kg)	% Suppression vs. Vehicle (19 h, 100 mg/kg)	% Suppression vs. Vehicle (19 h, 300 mg/kg)	further results
C[C@@H]1CN(c2ccc(C#N)c3ncccc23)C[C@H](C)O1 [ER-878952]	–	–	–	–	–	–	–	–	% Suppression vs. Vehicle (12 h, 200 mg/kg): 93%; % Suppression vs. Vehicle (12 h, 600 mg/kg): 95%; % Suppression vs. Vehicle (18 h, 200 mg/kg): 90%; % Suppression vs. Vehicle (18 h, 600 mg/kg): 96%
C[C@@H]1CN(c2ccc(C#N)c3ncccc23)C[C@H](CO)O1 [ER-885493, 5-((2R,6R)-2-(hydroxymethyl)-6-methylmorpholino)quinoline-8-carbonitrile]	–	–	–	–	–	–	–	–	% Suppression vs. Vehicle (3 h, 22 mg/kg): 39%; % Suppression vs. Vehicle (3 h, 67 mg/kg): 86%; % Suppression vs. Vehicle (3 h, 200 mg/kg): 88%; % Suppression vs. Vehicle (5 h, 22 mg/kg): 26%; % Suppression vs. Vehicle (5 h, 67 mg/kg): 99%; % Suppression vs. Vehicle (5 h, 200 mg/kg): 94%; % Suppression vs. Vehicle (12 h, 400 mg/kg): 76%; % Suppression vs. Vehicle (18 h, 22 mg/kg): 0%; % Suppression vs. Vehicle (18 h, 67 mg/kg): 5%; % Suppression vs. Vehicle (18 h, 200 mg/kg): 29%
CC1CN(c2ccc(C#N)c3ncccc23)CC(CN2CCCC2CO)O1 (stereo not shown) [ER-886814]	93%	100%	57%	100%	100%	14%	19%	100%	% Suppression vs. Vehicle (3 h, 300 mg/kg): 100%
C[C@@H]1CN(c2ccc(C#N)c3ncccc23)C[C@H](CN2CC[C@H](O)C2)O1 [ER-886820]	93%	100%	68%	96%	100%	43%	35%	39%	% Suppression vs. Vehicle (3 h, 300 mg/kg): 100%
C[C@@H]1CN(c2ccc(C#N)c3ncccc23)C[C@H](CN2CCC(O)CC2)O1 [ER-886953]	99%	99%	99%	99%	99%	23%	45%	99%	% Suppression vs. Vehicle (3 h, 300 mg/kg): 99%
C[C@@H]1CN(c2ccc(C#N)c3ncccc23)C[C@H](CNC2CCCC2)O1 [ER-887145]	97%	99%	91%	99%	–	0%	96%	–	% Suppression vs. Vehicle (3 h after oral dose, 11 mg/kg): 67%; % Suppression vs. Vehicle (6 h, 11 mg/kg): 32%; % Suppression vs. Vehicle (19 h, 11 mg/kg): 0%
C[C@@H]1CN(C[C@H]2CN(c3ccc(C#N)c4ncccc34)C[C@@H](C)O2)CCN1 [ER-887269]	–	–	95%	100%	98%	9%	58%	95%	–
C[C@@H]1CN(c2ccc(C#N)c3ncccc23)C[C@H](CN2CCN(C)CC2)O1 [ER-887723]	–	–	100%	100%	100%	77%	97%	100%	–
CCCN1CCN(C[C@H]2CN(c3ccc(C#N)c4ncccc34)C[C@@H](C)O2)CC1 [ER-887724]	99%	99%	99%	99%	99%	83%	91%	99%	% Suppression vs. Vehicle (3 h, 300 mg/kg): 99%
CC1CN(c2ccc(C#N)c3ncccc23)CC(CN2CCC(N(C)C)CC2)O1 (stereo not shown) [ER-887725]	99%	99%	99%	99%	99%	90%	91%	99%	% Suppression vs. Vehicle (3 h, 300 mg/kg): 99%
C[C@@H]1CN(c2ccc(C#N)c3ncccc23)C[C@H](CN2CCC(N3CCCCC3)CC2)O1 [ER-887927, 5-((2S,6R)-2-([1,4′-bipiperidin]-1′-ylmethyl)-6-methylmorpholino)quinoline-8-carbonitrile]	–	–	100%	100%	100%	98%	100%	100%	% Suppression vs. Vehicle (19 h, 1.22 mg/kg): 56%; % Suppression vs. Vehicle (19 h, 3.67 mg/kg): 70%; % Suppression vs. Vehicle (19 h, 11 mg/kg): 94%
CC(=O)NC1CCN(CC2CN(c3ccc(C#N)c4ncccc34)CC(C)O2)CC1 (stereo not shown) [ER-888288]	100%	98%	78%	99%	97%	50%	53%	–	% Suppression vs. Vehicle (24 h, 33 mg/kg): 14%; % Suppression vs. Vehicle (24 h, 100 mg/kg): 0%; % Suppression vs. Vehicle (24 h, 300 mg/kg): 55%
CC1CN(c2ccc(C#N)c3ncccc23)CC(CN2CCN(C)CC2C)O1 (stereo not shown) [ER-889556]	100%	100%	100%	100%	–	47%	98%	–	% Suppression vs. Vehicle (19 h, 1.22 mg/kg): 44%; % Suppression vs. Vehicle (19 h, 3.67 mg/kg): 89%; % Suppression vs. Vehicle (19 h, 11 mg/kg): 29%
CC1CN(c2ccc(C#N)c3ncccc23)CC(CN2CCC(NC(=O)C(C)C)CC2)O1 (stereo not shown) [ER-889745]	–	93%	94%	84%	–	0%	52%	–	% Suppression vs. Vehicle (13 h, 33 mg/kg): 0%; % Suppression vs. Vehicle (13 h, 100 mg/kg): 99%; % Suppression vs. Vehicle (13 h, 300 mg/kg): 95%; % Suppression vs. Vehicle (24 h, 33 mg/kg): 0%; % Suppression vs. Vehicle (24 h, 100 mg/kg): 64%; % Suppression vs. Vehicle (24 h, 300 mg/kg): 100%
CC[C@H]1CN(C[C@H]2CN(c3ccc(C#N)c4ncccc34)C[C@@H](C)O2)CCN1 [ER-890963]	90%	–	98%	99%	100%	45%	–	–	% Suppression vs. Vehicle (13 h, 33 mg/kg): 31%; % Suppression vs. Vehicle (13 h, 100 mg/kg): 80%; % Suppression vs. Vehicle (13 h, 300 mg/kg): 100%; % Suppression vs. Vehicle (24 h, 100 mg/kg): 50%; % Suppression vs. Vehicle (24 h, 300 mg/kg): 100%
C[C@@H]1CN(c2ccc(C#N)c3ncccc23)C[C@H](C(=O)NC2CCN(C)CC2)O1 [ER-899464, (2R,6R)-4-(8-cyanoquinolin-5-yl)-6-methyl-N-(1-methylpiperidin-4-yl)morpholine-2-carboxamide]	–	–	–	99%	–	–	–	–	short-term in vivo suppression of the TLR7 pathway (plasma IL-6): suppression of the TLR7 pathway; % Suppression vs. Vehicle (13 h, 100 mg/kg): 96%
C[C@@H]1CN(c2ccc(C#N)c3ncccc23)C[C@H](C(=O)N[C@H]2CNC[C@H]2F)O1.Cl [ER-899742, (2R,6R)-4-(8-cyanoquinolin-5-yl)-N-[(3S,4R)-4-fluoropyrrolidin-3-yl]-6-methylmorpholine-2-carboxamide hydrochloride]	–	–	–	100%	–	–	–	–	short-term in vivo suppression of the TLR7 pathway (plasma IL-6): suppression of the TLR7 pathway; % Suppression vs. Vehicle (13 h, 100 mg/kg): 61%; duration of full suppression of the R848/TLR7/IL-6 pathway in vivo (single oral dose 300 mg/kg): at least 24 hours
